Values of other authors, collected in US20090239872A1, “TREATMENT OF MESOTHELIOMA” (priority 2002, published 2009).

Experiments:
Settings in all cases: qualitative statement
Flt-1 = Flt-1 (Homo sapiens, UniProt P17948)
Flt-4 = Flt-4 (Homo sapiens, UniProt P35916)
c-Kit = c-Kit (Homo sapiens, UniProt P10721)
Sequence of c-Kit (P10721 26-976): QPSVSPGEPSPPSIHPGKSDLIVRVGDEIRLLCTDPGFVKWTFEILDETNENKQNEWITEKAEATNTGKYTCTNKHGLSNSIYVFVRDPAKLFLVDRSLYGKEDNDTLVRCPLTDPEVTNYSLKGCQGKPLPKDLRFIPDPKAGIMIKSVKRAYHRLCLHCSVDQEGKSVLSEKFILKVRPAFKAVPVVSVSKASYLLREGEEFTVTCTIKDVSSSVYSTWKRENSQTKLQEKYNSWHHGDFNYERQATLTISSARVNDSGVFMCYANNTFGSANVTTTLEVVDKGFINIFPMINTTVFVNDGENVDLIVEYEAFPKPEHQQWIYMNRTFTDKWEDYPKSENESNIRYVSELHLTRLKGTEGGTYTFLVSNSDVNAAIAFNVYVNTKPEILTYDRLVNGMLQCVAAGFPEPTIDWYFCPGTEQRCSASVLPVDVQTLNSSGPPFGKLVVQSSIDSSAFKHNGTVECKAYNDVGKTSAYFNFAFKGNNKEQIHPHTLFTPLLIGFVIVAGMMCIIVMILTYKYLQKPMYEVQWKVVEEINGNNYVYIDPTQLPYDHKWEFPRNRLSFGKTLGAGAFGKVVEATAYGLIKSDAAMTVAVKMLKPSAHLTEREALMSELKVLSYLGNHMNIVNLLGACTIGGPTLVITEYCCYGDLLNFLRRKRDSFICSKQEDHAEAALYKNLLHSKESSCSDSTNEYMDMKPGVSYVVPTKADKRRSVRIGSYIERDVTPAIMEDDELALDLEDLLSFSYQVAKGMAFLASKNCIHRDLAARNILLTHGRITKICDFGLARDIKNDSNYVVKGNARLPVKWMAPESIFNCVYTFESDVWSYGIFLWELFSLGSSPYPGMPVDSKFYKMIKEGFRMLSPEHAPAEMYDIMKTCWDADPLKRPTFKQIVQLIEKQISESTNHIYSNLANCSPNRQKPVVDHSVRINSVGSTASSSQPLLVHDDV

Sequence of Flt-4 (P35916 25-1363, species assumed): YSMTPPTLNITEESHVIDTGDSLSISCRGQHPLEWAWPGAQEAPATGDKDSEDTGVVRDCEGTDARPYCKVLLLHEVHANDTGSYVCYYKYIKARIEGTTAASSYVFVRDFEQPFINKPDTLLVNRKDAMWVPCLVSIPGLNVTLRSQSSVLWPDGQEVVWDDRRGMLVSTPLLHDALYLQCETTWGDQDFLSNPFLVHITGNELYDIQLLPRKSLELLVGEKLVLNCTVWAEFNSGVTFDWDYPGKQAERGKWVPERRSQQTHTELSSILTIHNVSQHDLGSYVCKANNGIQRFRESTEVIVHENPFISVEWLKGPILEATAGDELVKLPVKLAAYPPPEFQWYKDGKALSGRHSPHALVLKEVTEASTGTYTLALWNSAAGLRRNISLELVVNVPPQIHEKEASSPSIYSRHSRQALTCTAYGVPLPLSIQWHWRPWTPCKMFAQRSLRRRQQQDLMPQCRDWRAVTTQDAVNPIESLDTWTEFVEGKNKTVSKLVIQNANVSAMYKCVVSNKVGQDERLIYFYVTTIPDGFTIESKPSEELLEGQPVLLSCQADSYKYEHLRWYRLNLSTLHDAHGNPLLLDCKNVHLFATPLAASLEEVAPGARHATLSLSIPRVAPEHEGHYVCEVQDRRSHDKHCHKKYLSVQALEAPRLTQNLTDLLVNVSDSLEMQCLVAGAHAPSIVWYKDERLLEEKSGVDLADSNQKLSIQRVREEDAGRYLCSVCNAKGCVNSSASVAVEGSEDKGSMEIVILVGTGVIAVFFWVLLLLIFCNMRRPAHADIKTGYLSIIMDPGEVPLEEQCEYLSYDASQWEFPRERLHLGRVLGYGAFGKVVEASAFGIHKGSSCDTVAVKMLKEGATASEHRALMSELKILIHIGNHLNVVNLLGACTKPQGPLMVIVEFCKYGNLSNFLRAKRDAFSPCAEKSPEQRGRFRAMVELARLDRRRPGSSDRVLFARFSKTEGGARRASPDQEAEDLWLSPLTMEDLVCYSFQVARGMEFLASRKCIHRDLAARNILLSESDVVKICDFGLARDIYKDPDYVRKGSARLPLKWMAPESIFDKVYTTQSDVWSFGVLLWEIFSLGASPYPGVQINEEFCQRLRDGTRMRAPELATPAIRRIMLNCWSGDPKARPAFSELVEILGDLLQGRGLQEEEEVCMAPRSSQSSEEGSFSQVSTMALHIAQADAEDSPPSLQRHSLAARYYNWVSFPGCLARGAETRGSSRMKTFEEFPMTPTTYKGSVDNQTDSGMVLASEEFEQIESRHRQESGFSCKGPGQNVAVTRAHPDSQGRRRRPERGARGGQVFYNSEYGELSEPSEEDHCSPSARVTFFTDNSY
Sequence of Flt-1 (P17948 27-1338, species assumed): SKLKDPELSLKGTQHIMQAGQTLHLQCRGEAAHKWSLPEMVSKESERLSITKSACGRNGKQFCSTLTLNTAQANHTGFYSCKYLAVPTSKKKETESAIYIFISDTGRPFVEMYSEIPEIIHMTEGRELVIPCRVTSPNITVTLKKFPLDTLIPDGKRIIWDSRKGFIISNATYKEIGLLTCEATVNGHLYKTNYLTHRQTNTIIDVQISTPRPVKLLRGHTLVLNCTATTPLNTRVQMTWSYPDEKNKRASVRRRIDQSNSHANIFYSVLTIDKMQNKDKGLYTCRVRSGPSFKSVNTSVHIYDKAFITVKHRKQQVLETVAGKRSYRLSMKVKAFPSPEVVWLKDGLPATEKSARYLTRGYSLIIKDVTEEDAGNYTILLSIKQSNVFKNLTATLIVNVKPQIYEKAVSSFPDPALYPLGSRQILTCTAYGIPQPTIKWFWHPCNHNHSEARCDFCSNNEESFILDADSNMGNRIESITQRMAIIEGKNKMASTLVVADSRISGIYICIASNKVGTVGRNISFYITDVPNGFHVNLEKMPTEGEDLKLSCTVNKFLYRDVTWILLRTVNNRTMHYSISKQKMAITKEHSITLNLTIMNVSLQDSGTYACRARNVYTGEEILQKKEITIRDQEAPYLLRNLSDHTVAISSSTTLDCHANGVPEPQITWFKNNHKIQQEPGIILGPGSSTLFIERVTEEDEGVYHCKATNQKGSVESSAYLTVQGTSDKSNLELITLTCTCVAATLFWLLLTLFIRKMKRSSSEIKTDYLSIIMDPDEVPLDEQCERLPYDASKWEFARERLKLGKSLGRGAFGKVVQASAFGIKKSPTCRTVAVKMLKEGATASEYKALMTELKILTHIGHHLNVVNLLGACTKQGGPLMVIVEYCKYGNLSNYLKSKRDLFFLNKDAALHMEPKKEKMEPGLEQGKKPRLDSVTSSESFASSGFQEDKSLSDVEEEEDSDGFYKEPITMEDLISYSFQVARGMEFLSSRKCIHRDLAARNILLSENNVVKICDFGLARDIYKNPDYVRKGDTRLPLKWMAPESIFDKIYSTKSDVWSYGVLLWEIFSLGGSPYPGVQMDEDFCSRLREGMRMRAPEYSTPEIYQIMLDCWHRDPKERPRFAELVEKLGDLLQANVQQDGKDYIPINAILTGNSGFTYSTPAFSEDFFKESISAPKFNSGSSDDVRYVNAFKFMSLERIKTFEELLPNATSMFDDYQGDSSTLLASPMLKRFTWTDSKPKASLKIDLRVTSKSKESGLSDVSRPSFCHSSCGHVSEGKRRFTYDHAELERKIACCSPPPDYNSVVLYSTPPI

inhibition of Flt-1 (Flt-1): can also inhibit | inhibition of Flt-4 (Flt-4): can also inhibit | activity against c-Kit (c-Kit): has activity
Structure (SMILES): Clc1ccc(Nc2nnc(Cc3ccncc3)c3ccccc23)cc1 [ZK222584, 1-(4-chloroanilino)-4-(4-pyridylmethyl)phthalazine]
